The values that follow come from patent US20090297469A1, “Cyanoacrylate Monomer Formulation Containing Diiodomethyl-p-tolylsulfone and 2,4,4'-Trichloro-2'-Hydroxydiphenyl Ether” (priority 2004, published 2009).

Values after ≈ are worked out from the molar mass of the structure shown.

Data set [1] deals with genus Staphylococcus, Staphylococcus epidermidis, Staphylococcus aureus, methicillin-resistant Staphylococcus epidermidis, and methicillin-resistant …. The following applies: cited from earlier work.
The conditions of data set [2]: aqueous; cited from earlier work.
Data set [3] concerns Staphylococcus epidermidis 51625. The data set can be described thus: MIC/MBC by tube dilution procedure. It counts as cell-based. The following applies: preliminary evaluation. As to the method: (§1) The effectiveness of the antimicrobial property of pure DIMPTS is described in terms of minimum inhibitory concentration (MIC) and minimum bactericidal concentration (MBC) in Table II (A). Minimum inhibitory concentration is the lowest concentration that prevents the development of visible growth after a period of incubation. Minimum bactericidal concentration is the lowest concentration that achieves a 1000 fold or greater reduction in the original bacterial inoculum. The minimum inhibitory concentration and minimum bactericidal concentration is evaluated using tube dilution procedure.

In data set [4] the test system is Staphylococcus aureus 6538. The data set can be described thus: MIC/MBC by tube dilution procedure. The following applies: preliminary evaluation. Type of data set: cell-based. The protocol:
as §1

The test system of data set [5] is Streptococcus agalactiae 624. The data set can be described thus: MIC/MBC by tube dilution procedure. Type of data set: cell-based. The following applies: preliminary evaluation. As to the method: as §1
In data set [6] the test system is Bacillus subtilis 902173. Briefly: MIC/MBC by tube dilution procedure. Type of data set: cell-based. The following applies: preliminary evaluation. The protocol:
as §1

In data set [7] the test system is Escherichia coli 8739. Briefly: MIC/MBC by tube dilution procedure. It counts as cell-based. The note with it: preliminary evaluation. The protocol:
as §1

The test system of data set [8] is Pseudomonas aeruginosa 9027. The data set can be described thus: MIC/MBC by tube dilution procedure. It counts as cell-based. The note with it: preliminary evaluation. As to the method:
as §1

For data set [9], the system named is Candida albicans 10231. Briefly: MIC/MBC by tube dilution procedure. It counts as cell-based. The note with it: preliminary evaluation. The protocol:
as §1

In data set [10] the test system is Staphylococcus aureus 33591. Briefly: MIC/MBC by tube dilution procedure. Type of data set: cell-based. The note with it: preliminary evaluation. As to the method: (§2) The effectiveness of the antimicrobial property of pure […] is described in terms of minimum inhibitory concentration (MIC) and minimum bactericidal concentration (MBC) in Table II (A). Minimum inhibitory concentration is the lowest concentration that prevents the development of visible growth after a period of incubation. Minimum bactericidal concentration is the lowest concentration that achieves a 1000 fold or greater reduction in the original bacterial inoculum. The minimum inhibitory concentration and minimum bactericidal concentration is evaluated using tube dilution procedure.

In data set [11] the test system is Enterococcus faecium 700221. Briefly: MIC/MBC by tube dilution procedure. It counts as cell-based. The following applies: preliminary evaluation. As to the method: as §2
Data set [12] relates to S. aureus, E. coli, P. aeruginosa, K. pneumoniae, P. cepacia, E. cloacae, S. marcescens, S. pyogenes, E. faecalis-Vancomycin Resistant, C. albicans and B. …. The following applies: reported for blends with acrylic hot melt adhesive polymers; cited from earlier work.

Turning to `Oc1cc(Cl)ccc1Oc1ccc(Cl)cc1Cl` [2,4,4′-trichloro-2′-hydroxydiphenyl ether], in data set [1], the Antimicrobial effect entry is given as “has an antimicrobial effect”.

What is called pKa is the negative logarithm of the acid dissociation constant. Turning to `[O-][Cl+3]([O-])([O-])O` [perchloric acid], the pKa in data set [2] is reported as −5.0.

As a reminder, the MIC is the lowest concentration found to suppress growth. Read a low MIC as a more susceptible organism. For `Cc1ccc(S(=O)(=O)C(I)I)cc1` [DIMPTS, diiodomethyl-p-tolylsulfone], the MBC in data set [3] was below 100 µg/mL; in data set [4] it was below 250 µg/mL; in data set [5], 125 to 250 µg/mL (≈ 296 to 592 µM); in [6] it was 50 to 100 µg/mL (≈ 118 to 237 µM); in [7], below 250 µg/mL; in data set [9], 10 to 100 µg/mL (≈ 23.7 to 237 µM). In data set [10], this molecule displayed an MBC below 250 µg/mL. The minimal inhibitory concentration (MIC) was 25 µg/mL (≈ 59.2 µM) in data set [3]; 100 µg/mL (≈ 237 µM) in data set [4]; 50 µg/mL (≈ 118 µM) in data set [5]; 50 µg/mL (≈ 118 µM) in data set [6]; 100 µg/mL (≈ 237 µM) in data set [7]; above 100 µg/mL in data set [8]. In addition, the MIC in data set [9] stood at 5 µg/mL (≈ 11.8 µM); in [10] it was 12.5 µg/mL (≈ 29.6 µM); in data set [11] it was 50 µg/mL (≈ 118 µM). Further, the “Zones of inhibition against several organisms” value in [12] is reported as “zones of inhibition”.
